Consider 15 compounds from ChEMBL document CHEMBL4390707, “Synthesis and comparison of substituted 1,2,3-dithiazole and 1,2,3-thiaselenazole as inhibitors of the feline immunodeficiency virus (FIV) nucleocapsid protein as a model for HIV infection” (Bioorg Med Chem Lett, 2019).

The nature of data set [1]: Therapeutic index, ratio of CC50 for cat FL-4 cells to EC50 for inhibition of nucleocapsin protein in FIV infected in cat FL-4 cells. To be noted: FL-4 cells (FIV infected for EC50), read-out: Ratio CC50/EC50. In kind it is toxicity, cell-based.
Data set [2] in a line: Cytotoxicity against cat FL-4 cells measured after 7 days by MTT assay. In kind it is cell-based, Felis catus.
The nature of data set [3]: Cytotoxicity against cat CRFK cells measured after 24 hrs by MTT assay. In kind it is cell-based, Felis catus.
Data set [4] is described as follows: Inhibition of nucleocapsin protein in FIV infected in cat FL-4 cells assessed as reduction in viral RNA replication measured after 7 days by qRT-PCR analysis. In kind it is cell-based. To be noted: Feline immunodeficiency virus, FL-4, 168 h.

The structures appear in SMILES notation.

On to `CCOC(=O)c1c2n[se]sc-2c(Cl)c1Cl`, for which the selectivity ratio in data set [1] was found to be 61.9. Also, in data set [2], the CC50 at 168 h stood at 5.1 µM. In data set [3], this compound yielded a CC50 at 24 h above 100 µM. The concentration giving a half-maximal response (EC50) in data set [4] was 0.082 µM.

Turning to `Clc1c2nssc-2c(Cl)c1Cl`, the selectivity ratio in data set [1] worked out at 3.8. In addition, half-maximal cytotoxicity in data set [2] (CC50 at 168 h) was put at 6.1 µM. For the same compound, the CC50 at 24 h in data set [3] was 68 µM. Moreover, the EC50 in data set [4] was found to be 1.6 µM.

`Clc1c2ssnc-2c2ccccc12`: the selectivity ratio in data set [1] worked out at 36.3. It took 49 µM to reach half-maximal cytotoxicity in data set [2] (CC50 at 168 h). In data set [3], this compound showed a half-maximal cytotoxic concentration (CC50) at 24 h above 100 µM. In addition, the EC50 in data set [4] amounted to 1.4 µM.

Take `CCOC(=O)c1c2nssc-2c(Cl)c1Cl`: the selectivity ratio in data set [1] was 11.4. In addition, it took 3.5 µM to reach half-maximal cytotoxicity in data set [2] (CC50 at 168 h). This compound displayed a CC50 at 24 h in data set [3] above 100 µM. In data set [4], the 50% effective concentration (EC50) amounted to 0.31 µM.

Regarding `Cc1cn([C@H]2C[C@H](N=[N+]=[N-])[C@@H](CO)O2)c(=O)[nH]c1=O` [ZIDOVUDINE], the selectivity ratio in data set [1] is above 37. The same compound displayed a 50% cytotoxic concentration (CC50) at 168 h in data set [2] above 100 µM. The same compound returned a 50% cytotoxic concentration (CC50) at 24 h in data set [3] above 100 µM. The EC50 in data set [4] turned out to be 2.7 µM.

As for `Clc1c2n[se]sc-2c(Cl)c1Cl`, the selectivity ratio in data set [1] was 5.4. In data set [2], this compound showed a CC50 at 168 h of 6.5 µM. This compound returned a CC50 at 24 h in data set [3] of 62 µM. Further, the EC50 in data set [4] amounted to 1.2 µM.

For the compound `N#Cc1c2n[se]sc-2c(Cl)c1Cl`, the selectivity ratio in data set [1] amounted to 4.7. In data set [2], this compound came in with a cytotoxic concentration (CC50) at 168 h of 18 µM. The same compound had a CC50 at 24 h in data set [3] above 100 µM. Further, the EC50 in data set [4] was found to be 3.8 µM.

Consider `ClC1=C2SSN=C2c2ccccc2C(Cl)=C1Cl`, for which, in data set [1], the selectivity ratio was 3.1. The compound further gave a CC50 at 168 h in data set [2] of 9.3 µM. Besides, the CC50 at 24 h in data set [3] is above 100 µM. For the same compound, the EC50 in data set [4] stood at 3 µM.

For the compound `N#Cc1c2nssc-2c(Cl)c1Cl`, the selectivity ratio in data set [1] was determined as 26.8. The same compound registered a CC50 at 168 h in data set [2] of 39 µM. Besides, the CC50 at 24 h in data set [3] was above 100 µM. Besides, in data set [4], the EC50 was 1.5 µM.

As for `c1ccc(-c2c3s[se]nc-3c3ccccc23)cc1`, the selectivity ratio in data set [1] turned out to be 194. This compound also yielded a half-maximal cytotoxic concentration (CC50) at 168 h in data set [2] of 50 µM. The compound also yielded a CC50 at 24 h in data set [3] of 56 µM. Moreover, the half-maximal effective concentration (EC50) in data set [4] stood at 0.26 µM.

With `c1ccc(-c2c3ssnc-3c3ccccc23)cc1`, in data set [1], the selectivity ratio is above 4. The compound further registered a CC50 at 168 h in data set [2] above 100 µM. Further, the CC50 at 24 h in data set [3] was above 100 µM. Further, the EC50 in data set [4] was determined as 25.7 µM.

Consider `ClC1=C2S[Se]N=C2c2ccccc2C(Cl)=C1Cl`, for which the selectivity ratio in data set [1] was determined as 3.3. Moreover, it took 0.83 µM to reach half-maximal cytotoxicity in data set [2] (CC50 at 168 h). Also, the CC50 at 24 h in data set [3] was above 100 µM. Besides, the EC50 in data set [4] came out at 0.25 µM.

Consider `c1ccc2c(c1)N=C1SSN=C1O2`, for which, in data set [1], the selectivity ratio turned out to be 14. Further, the CC50 at 168 h in data set [2] was determined as 57 µM. In addition, in data set [3], the CC50 at 24 h is above 100 µM. Besides, in data set [4], the EC50 came out at 4 µM.

As for `Clc1c2s[se]nc-2c2ccccc12`, the selectivity ratio in data set [1] is 4.6. Besides, the CC50 at 168 h in data set [2] stood at 5.7 µM. This compound also came in with a CC50 at 24 h in data set [3] of 98 µM. Further, the concentration giving a half-maximal response (EC50) in data set [4] worked out at 1.2 µM.

Take `c1ccc2c(c1)N=C1S[Se]N=C1O2`: the selectivity ratio in data set [1] is 24. In addition, in data set [2], half-maximal cytotoxicity (CC50 at 168 h) was put at 5.8 µM. The compound further gave a half-maximal cytotoxic concentration (CC50) at 24 h in data set [3] above 100 µM. In data set [4], the EC50 stood at 0.24 µM.
